Results on 3 compounds are retold here after US5627173A, “Phosphonoacetic acid derivatives and their use for treating degenerative joint disorders” (Hoechst Aktiengesellschaft, priority 1995, dated 1997).

Converted amounts (≈) assume the structure as drawn. Bounds are passed on as bounds.

Assay [1] relates to isolated guinea pig trachea. Kind of assay: Antagonism of KCl-induced contraction of the isolated guinea pig trachea. The following applies: Cavia porcellus; agonist KCl; read-out: Anticontractile effect (trachea), concentration range needed to bring about a dilatation corresponding to the ED50 range. An excerpt:
(§1) The compounds according to the invention are used as antagonists of the contraction of various parts of organs, in this case the isolated guinea pig trachea. The agonists used were KCl, PGF2a, calcium ionophore A23187 and substance P:
Products with a non-specific effect generally show a spasmolytic effect with respect to all agonists. KCI is representative here of non-specific, receptor-independent contraction because KCl-induced contractions are produced predominantly physically, that is to say by increasing the K+ concentration in the outside medium, and change the resting potential of the cell.
(§2) The guinea pigs were sacrificed by lethal anesthesia with laughing gas. The trachea was dissected out over its entire length and cut into 15 individual cartilage rings. In each case five rings were connected together to form a chain and fixed in an organ bath under a preload of 3 g. After an equilibration period of 45 minutes, a contraction was induced with the agonist. Cumulative addition of the antagonist (test product) took place at the plateau 5 of the maximum. Evaluation took place as % change in strength based on the maximum contraction. The test was carried out at 37° C., and the physiological nutrient solution used was a modified Krebs-Henseleit solution through which 95% by volume 02 and 5% by volume CO2 was bubbled.
(§3) Test animals: Albino guinea pigs (102), weight: 200 to 300 g, male or female
(§4) Composition of the organ bath (nutrient solution):
(§5) Vehicle: Double-distilled water, ethanol or isopropanol; Administration: into the organ bath Number of administrations: cumulative, single doses for SP

The test system of assay [2] is isolated guinea pig trachea. Kind of assay: Antagonism of PGF2α-induced contraction of the isolated guinea pig trachea. The note with it: Cavia porcellus; agonist PGF2α; read-out: Anticontractile effect (trachea), concentration range needed to bring about a dilatation corresponding to the ED50 range.
Excerpt: as §1
Inhibition of contractions induced by this cyclooxygenase product is possible only by competitive antagonism at the receptor or of the downstream signal pathway.
as §2, §3, §4, §5

For assay [3], the system named is isolated guinea pig trachea. Nature of the assay: Antagonism of calcium ionophore A23187-induced contraction of the isolated guinea pig trachea. The note with it: Cavia porcellus; agonist Ca ionophore A23187; read-out: Anticontractile effect (trachea), concentration range needed to bring about a dilatation corresponding to the ED50 range.
Excerpt: as §1
c) Calcium ionophore A23187 (Calbiochem, Bad Soden) brings about, due to increased uptake of calcium ions, an activation of all calcium-dependent signal cascades in the cell.
as §2, §3, §4, §5

In assay [4] the test system is isolated guinea pig trachea. Nature of the assay: Antagonism of substance P-induced contraction of the isolated guinea pig trachea. The following applies: Cavia porcellus; agonist substance P; read-out: Anticontractile effect (trachea), concentration range needed to bring about a dilatation corresponding to the ED50 range.
Excerpt: as §1
Antagonism is possible on the one hand by specific receptor antagonists, and on the other hand by inhibition of the downstream signal pathway.
as §2, §3, §4, §5

Assay [5] concerns isolated strips of guinea pig lung. Kind of assay: Antagonism of LTD4-induced contraction of isolated strips of guinea pig lung. The note with it: Cavia porcellus; agonist LTD4; read-out: Anticontractile effect (lung), concentration range corresponding to the IC50 value. The source says: (§6) The test was based on the same principle as the test indicated in Pharmacological Test 5; however, strips of lung were used in this case.
(§7) The guinea pig was sacrificed under anesthesia with laughing gas. The entire lung tract was cut out starting from the trachea. The lobes of the lungs were cut in circular fashion to produce strips about 3 mm wide. The strips of the upper lobes were divided up in order to obtain a total of six strips of approximately equal size. The strips were suspended in the organ baths under a preload of 4 g. Modified Krebs-Henseleit solutions were used as nutrient solution. When platelet activating factor (PAF) was used as agonist, the composition of this solution corresponded to that for the agonist SP in Pharmacological Test 5; a Krebs-Henseleit solution as in the case of the agonist KCI (Pharm. Test 5) was used for the agonist LTD4. 95% by volume 02, 5% by volume CO2 was bubbled through the bath, and the bath temperature was 37° C. The test is carried out by a therapeutic/cumulative method with dose levels of 1, 3, 6 and 10 μg/ml.
(§8) The test animals, organ bath, vehicle, mode of administration corresponded to that stated for Pharmacological Test 5.

The test system is the same in assay [6]. Kind of assay: Antagonism of PAF-induced contraction of isolated strips of guinea pig lung. The note with it: Cavia porcellus; agonist PAF; read-out: Anticontractile effect (lung), concentration range corresponding to the IC50 value.
Excerpt: as §6, §7, §8

In assay [7] the test system is RAW 264.7 cells. Kind of assay: Release of tumor necrosis factor α from RAW 264.7 cells. Format: cell-based. The note with it: Mus musculus, RAW264.7, LPS, incubation for 2.5 hours, read-out: inhibition of TNFα formation compared with an untreated control. The protocol: (§9) Culture medium: DMEM+10% FCS+penicillin/streptomycin (50 U/SO μg/ml)
(§10) Culture conditions: 37° C., 10% CO2
(§11) Culture dishes: 24-well dishes
(§12) In each case 10^6 cells/ml/well were incubated for 24 hours (h)
(§13) Addition of 10 μl of test substance (=100 μM in the test, dissolved in double-distilled water)
Addition of 50 μl of lipopolysaccharide (LPS) from E. coli (=10 pg/ml in the test, dissolved in culture medium) […]
Tumor necrosis factor α was determined using a Factortest X mouse TNFα ELISA kit from Genzyme (R(1sselsheim, Geromany), Order no. 80-2802-00.

Assay [8] concerns RAW 264.7 cells. Kind of assay: Release of substance P from RAW 264.7 cells. The class given is cell-based. The note with it: Mus musculus, RAW264.7, stimulated by 50 ng of LPS for 4 hours, read-out: inhibition of substance P production. As for the experimental part:
as §9, §10, §11, §12, §13
Release of substance P took place as described for TNFα, but the cells were stimulated by 50 ng of LPS for 4 hours. Substance P was determined using a substance P RIA test kit from Peninsula Laboratories (Belmont, USA) Test no. RIK-7451.

In assay [9] the test system is phosphodiesterase III. Nature of the assay: Inhibition of phosphodiesterase III activity. The note with it: 100 μM. The class given is biochemical. As for the experimental part: The test was carried out with the phosphodiesterase of Boehringer Mannheim (Mannheim, Germany), Order no. 108 243 by the method of T. SAEKI, I. SAITO, Biochem. Pharm. 46, No. 5, […], pages 833-839.

Regarding `CCOP(=O)(OCC)C(C#N)=Cc1cc(OC)ccc1OC` [Compound 30], the EC50 was more than 10 µg/mL in [1], 6 to 10 µg/mL (≈ 18.4 to 30.7 µM) in [2], 3 to 6 µg/mL (≈ 9.22 to 18.4 µM) in assay [3] and 10 to 30 µg/mL (≈ 30.7 to 92.2 µM) in assay [4]. The IC50 in [5] is approximately 10 µg/mL (≈ 30.7 µM); in [6], 1 to 3 µg/mL (≈ 3.07 to 9.22 µM).

For `CCOP(=O)(OCC)/C(C#N)=C\c1ccc(OC)c(OC)c1` [Compound 37, Z- and E-2-(diethoxyphosphinyl)-3-(3,4-dimethoxyphenyl) acrylonitrile], the EC50 in assay [1] is approximately 10 µg/mL (≈ 30.7 µM); in [2], approximately 3 µg/mL (≈ 9.22 µM); in assay [3], approximately 1 µg/mL (≈ 3.07 µM); in [4], approximately 3 µg/mL (≈ 9.22 µM). Also, the IC50 in assay [5] lay in the range of 0.1 to 0.3 µg/mL (≈ 0.307 to 0.922 µM); in assay [6], 1 to 3 µg/mL (≈ 3.07 to 9.22 µM). The results for the inhibition at 100 µM in [7] and in assay [8] were 55% and 100%, respectively. Further, the “inhibition of enzyme activity (phosphodiesterase III)” value in assay [9] came out at 39%.

In the case of `CCOP(=O)(OCC)C(C#N)Cc1ccc(OCc2ccccc2)c(OCc2ccccc2)c1` (stereo not shown) [Compound 11], the results for the EC50 in assay [1], in assay [2] and in assay [4] were more than 10 µg/mL, more than 10 µg/mL and 10 to 30 µg/mL (≈ 20.9 to 62.6 µM), respectively. The IC50 in [6] is 6 to 10 µg/mL (≈ 12.5 to 20.9 µM).
